Test results from patent US12171761B2, “Vilazodone inclusion complexes, compositions and preparation thereof” (Sunshine Lake Pharma Co., Ltd., priority 2016, dated 2024).

Experiment: Solubility of vilazodone under different physiological pH conditions
Type: physicochemical
Method: The inventors discovered that a main cause of the difference in vilazodone bioavailability between fasted and fed conditions is the significant difference in the solubility of vilazodone under different physiological pH conditions. Vilazodone is mainly absorbed in the small intestine where the physiological pH is about 6.8, and the solubility of vilazodone under such a pH is very low. Thus the amount and rate of vilazodone that is dissolved in the stomach will affect its absorption in the small intestine. […] However, in a 0.1 N HCl solution (simulated stomach fasted conditions), the solubility of vilazodone is poor, resulting in a significant reduction in bioavailability.

For `N#Cc1ccc2[nH]cc(CCCCN3CCN(c4ccc5oc(C(N)=O)cc5c4)CC3)c2c1` [Vilazodone, 5-(4-[4-(5-cyano-1H-indol-3-yl)butyl]-1-piperazinyl)-2-benzofuran-2-carboxamide], the solubility of vilazodone (0.1 N HCl solution (simulated stomach fasted conditions)) was “poor”, the solubility of vilazodone (pH 3.1 buffer (simulated stomach fed conditions)) was “dissolves well” and the solubility of vilazodone (physiological pH about 6.8 (small intestine)) was “very low”.
